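All cell lines were grown in 96-well plates and treated with compound for 48 hours. At the TGI there is no net growth.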
Assays:
Assay in all cases: NCI anticancer screen, dose series, 48 h
OVCAR-3 ovarian = tested on: OVCAR-3 ovarian
SF-295 CNS = tested on: SF-295 CNS
KM20L2 colon = tested on: KM20L2 colon
EKVX NSCLC = tested on: EKVX NSCLC
A549 NSCLC = tested on: A549 NSCLC
SNB-78 CNS = tested on: SNB-78 CNS
UACC-62 melanoma = tested on: UACC-62 melanoma
ACHN renal = tested on: ACHN renal
UO-31 renal = tested on: UO-31 renal
786-0 renal = tested on: 786-0 renal
NCI-H460 lung = tested on: NCI-H460 lung
LXFL 529 NSCLC = tested on: LXFL 529 NSCLC
SK-MEL-2 melanoma = tested on: SK-MEL-2 melanoma
MALME-3M melanoma = tested on: MALME-3M melanoma
KM12 colon = tested on: KM12 colon
COLO 205 colon = tested on: COLO 205 colon
HCT-15 colon = tested on: HCT-15 colon
SK-OV-3 ovarian = tested on: SK-OV-3 ovarian
HOP-92 NSCLC = tested on: HOP-92 NSCLC
MOLT-4 leukemia = tested on: MOLT-4 leukemia
SNB-19 CNS = tested on: SNB-19 CNS
RPMI-8226 leukemia = tested on: RPMI-8226 leukemia
DLD-1 colon = tested on: DLD-1 colon
SNB-75 CNS = tested on: SNB-75 CNS
HL-60(TB) leukemia = tested on: HL-60(TB) leukemia
DMS 114 small cell lung = tested on: DMS 114 small cell lung
SN12C renal = tested on: SN12C renal
NCI-H23 lung = tested on: NCI-H23 lung
HCT-116 colon = tested on: HCT-116 colon
SK-MEL-5 melanoma = tested on: SK-MEL-5 melanoma
SF-268 CNS = tested on: SF-268 CNS
HOP-18 NSCLC = tested on: HOP-18 NSCLC
OVCAR-4 ovarian = tested on: OVCAR-4 ovarian
OVCAR-8 ovarian = tested on: OVCAR-8 ovarian
UACC-257 melanoma = tested on: UACC-257 melanoma
HCC-2998 colon = tested on: HCC-2998 colon
OVCAR-5 ovarian = tested on: OVCAR-5 ovarian
HOP-62 NSCLC = tested on: HOP-62 NSCLC
IGROV1 ovarian = tested on: IGROV1 ovarian
HT29 colon = tested on: HT29 colon
SW-620 colon = tested on: SW-620 colon
CAKI-1 renal = tested on: CAKI-1 renal
LOX IMVI melanoma = tested on: LOX IMVI melanoma
SF-539 CNS = tested on: SF-539 CNS
CCRF-CEM leukemia = tested on: CCRF-CEM leukemia
M14 melanoma = tested on: M14 melanoma
M19-MEL melanoma = tested on: M19-MEL melanoma
DMS 273 small cell lung = tested on: DMS 273 small cell lung
RXF-631 renal = tested on: RXF-631 renal
TK-10 renal = tested on: TK-10 renal
K-562 leukemia = tested on: K-562 leukemia
NCI-H522 lung = tested on: NCI-H522 lung
RXF 393 renal = tested on: RXF 393 renal
A498 renal = tested on: A498 renal
SR leukemia = tested on: SR leukemia
U251 CNS = tested on: U251 CNS
NCI-H226 lung = tested on: NCI-H226 lung
SK-MEL-28 melanoma = tested on: SK-MEL-28 melanoma

`CC1CC2OC(=O)CC2C[C@@H]1O[Si](C)(C)C(C)(C)C` (stereo partly drawn) gave a TGI (OVCAR-3 ovarian) of over 100 µM, a TGI (SF-295 CNS) of over 100 µM and a TGI (KM20L2 colon) of over 100 µM. For the same compound, the TGI (EKVX NSCLC) was over 100 µM, the TGI (A549 NSCLC) was over 100 µM and the TGI (SNB-78 CNS) was over 100 µM. The TGI (UACC-62 melanoma) was over 100 µM, the TGI (ACHN renal) was over 100 µM and the TGI (UO-31 renal) was over 100 µM. The TGI (786-0 renal) was over 100 µM, the TGI (NCI-H460 lung) was over 100 µM and the TGI (LXFL 529 NSCLC) was over 100 µM. It also gave a TGI (SK-MEL-2 melanoma) of over 100 µM, a TGI (MALME-3M melanoma) of over 100 µM and a TGI (KM12 colon) of over 100 µM. The TGI (COLO 205 colon) was over 100 µM, the TGI (HCT-15 colon) was over 100 µM and the TGI (SK-OV-3 ovarian) was over 100 µM. For the same compound, the TGI (HOP-92 NSCLC) was 34.7 µM, the TGI (MOLT-4 leukemia) was 56.7 µM and the TGI (SNB-19 CNS) was over 100 µM. The TGI (RPMI-8226 leukemia) was 51.8 µM, the TGI (DLD-1 colon) was over 100 µM and the TGI (SNB-75 CNS) was over 100 µM. The TGI (HL-60(TB) leukemia) was 45.5 µM, the TGI (DMS 114 small cell lung) was 89.4 µM and the TGI (SN12C renal) was over 100 µM. For the same compound, the TGI (NCI-H23 lung) was over 100 µM, the TGI (HCT-116 colon) was over 100 µM and the TGI (SK-MEL-5 melanoma) was 97.4 µM. It also gave a TGI (SF-268 CNS) of over 100 µM, a TGI (HOP-18 NSCLC) of over 100 µM and a TGI (OVCAR-4 ovarian) of over 100 µM. For the same compound, the TGI (OVCAR-8 ovarian) was over 100 µM, the TGI (UACC-257 melanoma) was over 100 µM and the TGI (HCC-2998 colon) was over 100 µM. For the same compound, the TGI (OVCAR-5 ovarian) was over 100 µM, the TGI (HOP-62 NSCLC) was over 100 µM and the TGI (IGROV1 ovarian) was over 100 µM. The TGI (HT29 colon) was over 100 µM, the TGI (SW-620 colon) was over 100 µM and the TGI (CAKI-1 renal) was over 100 µM. It also gave a TGI (LOX IMVI melanoma) of over 100 µM, a TGI (SF-539 CNS) of over 100 µM and a TGI (CCRF-CEM leukemia) of over 100 µM. The TGI (M14 melanoma) was over 100 µM, the TGI (M19-MEL melanoma) was over 100 µM and the TGI (DMS 273 small cell lung) was over 100 µM. The TGI (RXF-631 renal) was over 100 µM, the TGI (TK-10 renal) was over 100 µM and the TGI (K-562 leukemia) was over 100 µM.
`C=C1CCC2C(C)(CO)C(O)CCC2(C)C1CC(O)/C(=C/CO)C(=O)O` (stereo not drawn) gave a TGI (NCI-H522 lung) of over 100 µM, a TGI (SF-295 CNS) of over 100 µM and a TGI (KM20L2 colon) of over 100 µM. It also gave a TGI (RXF 393 renal) of over 100 µM, a TGI (A549 NSCLC) of over 100 µM and a TGI (SNB-78 CNS) of over 100 µM. For the same compound, the TGI (A498 renal) was over 100 µM, the TGI (UACC-62 melanoma) was over 100 µM and the TGI (ACHN renal) was over 100 µM. The TGI (UO-31 renal) was over 100 µM, the TGI (786-0 renal) was over 100 µM and the TGI (NCI-H460 lung) was over 100 µM. It also gave a TGI (LXFL 529 NSCLC) of over 100 µM, a TGI (SK-MEL-2 melanoma) of over 100 µM and a TGI (MALME-3M melanoma) of over 100 µM. It also gave a TGI (KM12 colon) of over 100 µM, a TGI (COLO 205 colon) of over 100 µM and a TGI (HCT-15 colon) of over 100 µM. For the same compound, the TGI (SK-OV-3 ovarian) was over 100 µM, the TGI (HOP-92 NSCLC) was over 100 µM and the TGI (MOLT-4 leukemia) was over 100 µM. The TGI (SNB-19 CNS) was over 100 µM, the TGI (RPMI-8226 leukemia) was over 100 µM and the TGI (SR leukemia) was over 100 µM. For the same compound, the TGI (DLD-1 colon) was over 100 µM, the TGI (SNB-75 CNS) was over 100 µM and the TGI (HL-60(TB) leukemia) was over 100 µM. It also gave a TGI (DMS 114 small cell lung) of over 100 µM, a TGI (SN12C renal) of over 100 µM and a TGI (HCT-116 colon) of over 100 µM. It also gave a TGI (SK-MEL-5 melanoma) of over 100 µM, a TGI (SF-268 CNS) of over 100 µM and a TGI (HOP-18 NSCLC) of over 100 µM. The TGI (OVCAR-4 ovarian) was over 100 µM, the TGI (OVCAR-8 ovarian) was over 100 µM and the TGI (UACC-257 melanoma) was over 100 µM. It also gave a TGI (HCC-2998 colon) of over 100 µM, a TGI (OVCAR-5 ovarian) of over 100 µM and a TGI (HOP-62 NSCLC) of over 100 µM. The TGI (IGROV1 ovarian) was over 100 µM, the TGI (HT29 colon) was over 100 µM and the TGI (SW-620 colon) was over 100 µM. The TGI (CAKI-1 renal) was over 100 µM, the TGI (LOX IMVI melanoma) was over 100 µM and the TGI (SF-539 CNS) was over 100 µM. It also gave a TGI (CCRF-CEM leukemia) of over 100 µM, a TGI (M14 melanoma) of over 100 µM and a TGI (M19-MEL melanoma) of over 100 µM. For the same compound, the TGI (DMS 273 small cell lung) was over 100 µM, the TGI (U251 CNS) was over 100 µM and the TGI (RXF-631 renal) was over 100 µM. The TGI (TK-10 renal) was over 100 µM and the TGI (K-562 leukemia) was over 100 µM.
For `O=C(COc1ccc(/C=C/C(=O)c2ccc(Cl)cc2)cc1)Nc1c(Cl)cccc1Cl`, the TGI (OVCAR-3 ovarian) was over 100 µM, the TGI (NCI-H522 lung) was over 100 µM and the TGI (SF-295 CNS) was over 100 µM. It also gave a TGI (KM20L2 colon) of over 100 µM, a TGI (RXF 393 renal) of over 100 µM and a TGI (EKVX NSCLC) of over 100 µM. It also gave a TGI (A549 NSCLC) of over 100 µM, a TGI (SNB-78 CNS) of over 100 µM and a TGI (A498 renal) of over 100 µM. The TGI (UACC-62 melanoma) was over 100 µM, the TGI (ACHN renal) was over 100 µM and the TGI (UO-31 renal) was over 100 µM. The TGI (786-0 renal) was over 100 µM, the TGI (NCI-H460 lung) was over 100 µM and the TGI (LXFL 529 NSCLC) was over 100 µM. It also gave a TGI (MALME-3M melanoma) of over 100 µM, a TGI (NCI-H226 lung) of over 100 µM and a TGI (KM12 colon) of over 100 µM. The TGI (COLO 205 colon) was over 100 µM, the TGI (HCT-15 colon) was over 100 µM and the TGI (SK-OV-3 ovarian) was over 100 µM. For the same compound, the TGI (HOP-92 NSCLC) was over 100 µM, the TGI (MOLT-4 leukemia) was over 100 µM and the TGI (SNB-19 CNS) was over 100 µM. The TGI (RPMI-8226 leukemia) was over 100 µM, the TGI (SR leukemia) was over 100 µM and the TGI (DLD-1 colon) was over 100 µM. It also gave a TGI (SK-MEL-28 melanoma) of over 100 µM, a TGI (SNB-75 CNS) of over 100 µM and a TGI (HL-60(TB) leukemia) of over 100 µM. For the same compound, the TGI (DMS 114 small cell lung) was over 100 µM, the TGI (SN12C renal) was over 100 µM and the TGI (NCI-H23 lung) was over 100 µM. It also gave a TGI (HCT-116 colon) of over 100 µM, a TGI (SK-MEL-5 melanoma) of over 100 µM and a TGI (SF-268 CNS) of over 100 µM. It also gave a TGI (HOP-18 NSCLC) of over 100 µM, a TGI (OVCAR-4 ovarian) of over 100 µM and a TGI (OVCAR-8 ovarian) of over 100 µM. The TGI (UACC-257 melanoma) was over 100 µM, the TGI (OVCAR-5 ovarian) was over 100 µM and the TGI (HOP-62 NSCLC) was over 100 µM. It also gave a TGI (IGROV1 ovarian) of over 100 µM, a TGI (HT29 colon) of over 100 µM and a TGI (SW-620 colon) of over 100 µM. It also gave a TGI (CAKI-1 renal) of over 100 µM, a TGI (LOX IMVI melanoma) of over 100 µM and a TGI (SF-539 CNS) of over 100 µM. The TGI (CCRF-CEM leukemia) was over 100 µM, the TGI (M14 melanoma) was over 100 µM and the TGI (M19-MEL melanoma) was over 100 µM. The TGI (U251 CNS) was over 100 µM, the TGI (RXF-631 renal) was over 100 µM and the TGI (TK-10 renal) was over 100 µM.

— PubChem BioAssay (NCI)
